The source of these data is patent US20200054646A1, “USE OF PHENOTHIAZINE DERIVATIVE IN THE TREATMENT OF INFECTIOUS PURPURA OR PURPURA FULMINANS” (priority 2016, published 2020).

In test [1] the test system is HDMEC infected with Nm2C4.3. The test can be described thus: Cytoskeleton remodelling and endothelial cell junction integrity of infected HDMEC (Ezrin, Actin, VE-cadherin immunostaining). It is filed as cell-based, human. The method, then: (A) Experimental procedure: HDMEC were infected for 2 h with Nm2C4.3, treated for 1 h with gentamicin (150 μg/ml) and then 15 min with Trifluoperazine (50 μM) (or solvent alone as a control) and left in medium for 1 h before fixation. (B) Upper panels: Representative fluorescence microscopy showing the effect on the endothelial cell cytoskeleton remodelling analysed by immunostaining of Ezrin and Actin. Lower panels: Effect on the endothelial cell junction integrity was analysed by immunostaining of Actin and VE-cadherin. (C) Quantification of the bacterial colonization (upper panel) Ezrin recruitment and cortical actin polymerization at sites of bacterial adhesion (lower panel) was performed using Image J software.
HDMECs were grown in their specific culture medium (Promocell #C-12210) and confluent monolayers were infected with 2C4.3. Briefly, bacteria were precultured in prewarmed cell culture medium for 1 h 30 min at 37° C. 5% CO2. The OD600 was adjusted to 0.1 and HDMECs were then overlaid with bacteria for 30 min (MOI of 100). Unbound bacteria were removed by three washes in cell culture media and infection was allowed to proceed for 1 h at 37° C. 5% CO2. Gentamicin was added at 150 μg/ml for 1 h, then after three washes in cell culture media, Trifluoperazine was applied where mentioned at 50 μM for 20 min. After three washes in cell culture media, cells were allowed to recover for 1 h in cell culture media. At the indicated time, cells were fixed with 4% Paraformaldehyde for 10 min. Immunolabelling was then performed as above described in example 4, using DAPI, Alexa Fluor 633 Phalloidin, Polyclonal antisera raised against Ezrin, obtained from Pr P. Mangeat (CRBM, Montpellier, France) and anti-human VE-Cadherin (eBioscience #BMS158). When indicated, HBMECs were grown on Thermanox coverslips coated with gelatin 2% for 2 days to reach confluency. Cells were then infected as above described in the presence or in the absence of 5 μM Trifluoperazine for 2 h. Cells were washed and fixed in 4% paraformaldehyde and immunolabelling was performed with a polyclonal antisera raised anti-Nm2C4.3 strain, anti-human PECAM-1 mouse monoclonal, clone HEC7 (ABCAM ab119339) or rabbit polyclonal 177 raised against PECAM-1, obtained from WA Muller (Northwestern University, Chicago, Ill., US), anti-[…] catenin (05-482, UBI), polyclonal antisera raised against Ezrin, Alexa Fluor 633 Phalloidin. Secondary antibodies were from Jackson ImmunoResearch Laboratories. Image acquisitions were performed on a Leica DM16000 with Yokogawa CSU-X1M1 system and CoolSnap HQ2 (Photometrics). Quantifications were done using ImageJ software (NIH).

Test [2] has as its system Nm2C4.3 microcolonies on HCMEC/D3. It is filed as cell-based, Neisseria meningitidis.
Method: HCMEC/D3, a well-established human brain endothelial cell line (Weksler et at, 2013) was grown in EBM-2 basal medium (Lonza, Walkersville, Md., USA) supplemented with 5% Fetal Bovine Serum “Gold”, 10 mM HEPES (PAA Laboratories GmbH, Pasching, Austria), 1% Penicillin-Streptomycin, 1% chemically defined lipid concentrate (Invitrogen Ltd, Paisley, UK), 1.4 μM hydrocortisone, 5 μg·ml^−1 ascorbic acid and 1ng·ml^−1 bFGF (Sigma-Aldrich, St. Louis, Mo.). Cells were grown on Thermanox coverslips coated with rat collagen I for 4 days at 37° C. in a humidified incubator in 5% CO2. Cells were then infected with a suspension of Nm2C4.3 (˜10^7 CFU/ml) in EBM2/FBS during 30 minutes to allow bacterial adhesion. Cells were then washed three times with medium to remove non-adherent bacteria and infection was pursued for 1 h 30: adherent bacteria grew at the endothelial cell surface and formed micro-colonies. Trifluoperazine was then added to obtain final concentrations of 10, 20, 30 and 40 μM. After incubation for 30 minutes, cells were washed and fixed in 4% Paraformaldehyde for 10 min, washed three times with PBS, and permeabilized with 0.1% Triton X-100 in PBS for 10 min. […] Quantification was done with ImageJ software (NIH). […]
Test [3] deals with HBMECs infected with meningococci. Description: PECAM-1 recruitment at bacterial adhesion sites in infected HBMEC. The format is cell-based, human. Particulars: 5 μM, 2 h infection. The method, then:
(A) Monolayers of HBMECs were non-infected or infected for 2 h with meningococci and the effect on the localisation of the endothelial cell junction proteins PECAM-1 and […]-catenin was analysed by immunofluorescence analysis. Arrows point at PECAM-1 molecules recruited at bacterial adhesion sites (B) HBMECs were infected for 2 h with meningococci in the presence or in the absence of 5 μM Trifluoperazine and the effect on junctional PECAM-1 and on the endothelial cell cytoskeleton remodelling (Ezrin, Actin) was analysed by immunofluorescence analysis. (C) Quantification of Actin and PECAM-1 recruitment at sites of bacterial adhesion was performed using Image J software.
HDMECs were grown in their specific culture medium (Promocell #C-12210) and confluent monolayers were infected with 2C4.3. Briefly, bacteria were precultured in prewarmed cell culture medium for 1 h 30 min at 37° C. 5% CO2. The OD600 was adjusted to 0.1 and HDMECs were then overlaid with bacteria for 30 min (MOI of 100). Unbound bacteria were removed by three washes in cell culture media and infection was allowed to proceed for 1 h at 37° C. 5% CO2. Gentamicin was added at 150 μg/ml for 1 h, then after three washes in cell culture media, Trifluoperazine was applied where mentioned at 50 μM for 20 min. […] Quantifications were done using ImageJ software (NIH).

Test [4] has as its system meningococcal colonization of human brain vessels. Further details: species or system Neisseria meningitidis. The note with it: 40 μM for 30 min.
From the text: Fresh human brain sections were obtained from frontal lobe specimens of macroscopically and histologically normal brain (confirmed by a neuropathologist) of individuals referred to the Department of Forensic Medicine for unexplained out-of-hospital sudden death (consent forms ML1094, PFS 10-008, ClinicalTrials.gov NCT00320099 from The Institutional Review Boards of the Poincare Hospital, Versailles-Saint Quentin University and the French “Agence de la Biomédecine”). After freezing of the brain tissue with isopentane cooled in liquid nitrogen, the sections, 7 μm thick, containing leptomeninges, cortical ribbon and the underlying white matter were immobilised on Superfrost™ plus microscope slides and stored at −80° C. […] Adherent meningococci were detected by immunofluorescence analysis: brain sections were incubated with the following primary antibodies for 2 h in PBS/BSA 0.1%: monoclonal anti-human CD31/PECAM-1 mouse monoclonal antibody (clone HEC7, ABCAM, ab119339) and a rabbit polyclonal serum anti-Nm 2C4.3 strain (1:3000). […] Entire samples were scanned using a Lamina (Perkin Helmer) and were further analysed using confocal microscopy (spinning disk Leica, 63×). Quantification analysis of the images (n=50 per section) was performed using ImageJ software (NIH). […]
In test [5] the test system is Nm2C4.3 adhesion to human dermal microvascular endothelial cells (HDMECs). The test can be described thus: Meningococcal adhesion to endothelial cells after pretreatment of bacteria. It is filed as cell-based, Neisseria meningitidis. The note with it: bacteria pre-treated with 30 μM for 30 minutes. The protocol: Nm2C4.3 grown in suspension were pretreated in the absence or in the presence of 30 μM Trifluoperazine for 30 minutes before adhesion to human dermal microvascular endothelial cells (HDMECs) for 30 minutes. Infection was allowed to proceed for further 30, 60 or 90 minutes before fixation and immunostaining using anti-Nm2C4.3 antibody and Alexa Fluor 633 Phalloidin. (A) Representative fluorescence microscopy showing bacterial colony (white dots) formed at the surface of the endothelial cells. (B) Quantification of the bacterial colonization was performed using Image J software.

Test [6] deals with type IV pili of N. meningitidis 2C4.3 and isogenic PilT mutant. Description: Aggregation and type IV pili of wild type and PilT mutant (phase-contrast and transmission electron microscopy). It is filed as cell-based, Neisseria meningitidis. The protocol: N. meningitidis 2C4.3 wild type strain and the isogenic derivative mutant PilT ([…]PilT) were grown in liquid culture at 10^7 CFU/ml for 2 h to form bacterial aggregates and then treated with 50 μM Trifluoperazine. Time lapse phase-contrast video microscopy was performed to visualize the effect on bacterial aggregates over time. Images were taken at the indicated time points of the video.
N. meningitidis 2C4.3 wild type strain and the isogenic derivative mutant PilT ([…]PilT) were grown in liquid culture at 10^7 CFU/ml for 2 h to form bacterial aggregates and then treated with 50 μM Trifluoperazine for 15 minutes before analysis by transmission electron microscopy. Arrows point at bundles of type IV pili expressed at the bacterial surface.
N. meninigitidis 2C4.3 strain and the isogenic derivative mutant PilT, where the pilT gene was interrupted by an erythromycin-resistance cassette (Pujol et al., 1999), were grown in suspension in DMEM medium supplemented with 10% heat-inactivated fetal calf serum. PilT belongs to a highly conserved protein family homologous to AAA-type motor proteins and is proposed to cause the retraction of type IV pili by disassembling the pilin subunits at the base of the fiber (Morand et al., 2004). After 2 h of growth, Trifluoperazine (or control vehicle) was added at 50 μM for 20 min. The effect on bacterial aggregates were visualized over time using a phase-contrast microscope or the bacterial suspensions were fixed in 4% Paraformaldehyde for 10 min, centrifuged at 1000 rpm for 5 minutes and the bacterial pellets washed in PBS. After negative staining with 1% phosphotungstic acid, bacteria were analysed by transmission electron microscopy, using a JEOL 1011 microscope.

Setting [7] is: Gentamicin 150 μg/ml for 1 h alone.
The mark [8] stands for this setting: Trifluoperazine 50 μM in combination with gentamicin 150 μg/ml.

Molecules are shown by their SMILES.

`CN[C@@H]1[C@@H](O)C(O[C@@H]2[C@@H](O)[C@H](O[C@H]3O[C@H]([C@@H](C)NC)CC[C@H]3N)[C@@H](N)C[C@H]2N)OC[C@]1(C)O` (stereo partly drawn) [Gentamicin, (3R,4R,5R)-2-{[(1S,2S,3R,4S,6R)-4,6-diamino-3-{[(2R,3R,6S)-3-amino-6-[(1R)-1-(methylamino)ethyl]oxan-2-yl]oxy}-2-hydroxycyclohexyl]oxy}-5-methyl-4-(methylamino)oxane-3,5-diol]: in test [1] (setting [7]), the “Ezrin recruitment, cortical actin polymerization, VE-cadherin distribution under residual colonies” value was “still induced Ezrin recruitment” and the “number of colonies present at the cell surface” value is recorded as “reduced the number of colonies”.
On to `CN1CCN(CCCN2c3ccccc3Sc3ccc(C(F)(F)F)cc32)CC1` [Trifluoperazine], for which, in test [2] (30 min, HCMEC/D3), the “concentration range of dose-dependent microcolony dispersion” value lay in the range of 10 to 40 µM. In addition, the “dispersion of microcolonies on human brain endothelial cells” value in test [2] (treatment for 30 min) is listed as “induced their dispersion”. In test [3], the “PECAM-1 recruitment at bacterial adhesion sites” value is recorded as “prevented PECAM-1 recruitment” and the bacterial colonization result is listed as “did not affect”. Further, the “reduction of vascular colonization of the human brain vessels” value in test [4] was 80%. In addition, in test [1] (setting [8]), the “Ezrin recruitment under residual bacteria” value is “Few Ezrin recruitment”; the “dispersion of bacterial colonies at the endothelial cell surface” value is on record as “induced the dispersion of most of the bacterial colonies”; the “endothelial cell junction integrity (VE-cadherin staining, gaps between cells)” value is “preserved endothelial cell junction integrity”. Also, the “adhesion / colony formation at the endothelial cell surface by pre-treated bacteria” value in test [5] is given as “did no longer adhere”. Also, the “surface expression of type IV pili, PilT mutant (TEM)” value in test [6] (50 μM) is on record as “did not affect”. Further, the “type IV pili on bacterial surface, wild type 2C4.3 (TEM)” value in test [6] (50 μM for 30 minutes) is “no longer observed”. Also, in test [6] (50 μM, PilT mutant unable to retract type IV pili), the “effect on aggregation of PilT mutant strain” value is listed as “no effect”.
